Data taken from US11344554B2, “Animal and human anti-malarial agents” (Celgene Corporation, priority 2016, dated 2022).

System: Plasmodium falciparum
Test: Plasmodium falciparum in vitro [3H]-hypoxanthine parasite growth inhibition assay
Assay type: cell-based
Settings: Erythrocyte, P. falciparum asexual blood stage parasites in human erythrocytes, [3H]-hypoxanthine uptake, read-out: Act Class (IC50 activity level)

SMILES	IC50 [nM]
CC(C)Nc1ncc2nc(Nc3cc(C(F)(F)F)cc(C(F)(F)F)c3)n(C3CCNCC3)c2n1 [Cpd 84, N8-(3,5-bis(trifluoromethyl)phenyl)-N2-isopropyl-9-(piperidin-4-yl)-9H-purine-2,8-diamine]	< 100
CC1(Nc2ncc3nc(Nc4cccc(OC(F)(F)F)c4)n(C4CCNCC4)c3n2)CCOCC1 [Cpd 55, N2-(4-methyltetrahydro-2H-pyran-4-yl)-9-(piperidin-4-yl)-N8-(3-(trifluoromethoxy)phenyl)-9H-purine-2,8-diamine]	100 to 200
CC1(Nc2ncc3nc(Nc4cc(Cl)cc(Cl)c4)n(C4CCNCC4)c3n2)CCOCC1 [Cpd 61, N8-(3,5-dichlorophenyl)-N2-(4-methyltetrahydro-2H-pyran-4-yl)-9-(piperidin-4-yl)-9H-purine-2,8-diamine]	< 100
CC1(Nc2ncc3nc(Nc4cccc(C(F)F)c4)n(C4CCNCC4)c3n2)CCOCC1 [Cpd 57, N8-(3-(difluoromethyl)phenyl)-N2-(4-methyltetrahydro-2H-pyran-4-yl)-9-(piperidin-4-yl)-9H-purine-2,8-diamine]	500 to 1200
CC1(Nc2ncc3nc(Nc4ccc(Cl)c(C(F)(F)F)c4)n(C4CCNCC4)c3n2)CC1 [Cpd 89, N8-(4-chloro-3-(trifluoromethyl)phenyl)-N2-(1-methylcyclopropyl)-9-(piperidin-4-yl)-9H-purine-2,8-diamine]	200 to 500
FC(F)(F)c1cc(Cl)cc(Nc2nc3cnc(NC4CC4)nc3n2C2CCNCC2)c1 [Cpd 40, N8-(3-chloro-5-(trifluoromethyl)phenyl)-N2-cyclopropyl-9-(piperidin-4-yl)-9H-purine-2,8-diamine]	< 100
FC(F)(F)c1cc(Cl)cc(Nc2nc3cnc(NC4CCC4)nc3n2C2CCNCC2)c1 [Cpd 52, N8-(3-chloro-5-(trifluoromethyl)phenyl)-N2-cyclobutyl-9-(piperidin-4-yl)-9H-purine-2,8-diamine]	< 100
CC1(Nc2ncc3nc(Nc4cc(F)cc(Cl)c4)n(C4CCNCC4)c3n2)CCOCC1 [Cpd 56, N8-(3-chloro-5-fluorophenyl)-N2-(4-methyltetrahydro-2H-pyran-4-yl)-9-(piperidin-4-yl)-9H-purine-2,8-diamine]	< 100

Other lines, results leading:

IC50 [nM]	SMILES
200 to 500	CC(C)(C)Nc1ncc2nc(Nc3cccc(C(F)(F)F)c3)n(C3CC4CNCC4C3)c2n1 (stereo not drawn) [Cpd 95, N2-tert-butyl-9-(octahydrocyclopenta[c]pyrrol-5-yl)-N8-(3-(trifluoromethyl)phenyl)-9H-purine-2,8-diamine]
< 100	CC1(Nc2ncc3nc(Nc4cccc(C(F)(F)F)c4)n(C4CCNCC4)c3n2)CCCC1 [Cpd 59, N2-(1-methylcyclopentyl)-9-(piperidin-4-yl)-N8-(3-(trifluoromethyl)phenyl)-9H-purine-2,8-diamine]
500 to 1200	CC(C)(C)Nc1ncc2nc(Nc3cccc(C(F)(F)F)c3)n(CC3CCNCC3)c2n1 [Cpd 23, N2-tert-butyl-9-(piperidin-4-ylmethyl)-N8-(3-(trifluoromethyl)phenyl)-9H-purine-2,8-diamine]
200 to 500	CC(C)(C)Nc1ncc2nc(Nc3cccc(C#N)c3)n(C3CCNCC3)c2n1 [Cpd 50, 3-(2-(tert-butylamino)-9-(piperidin-4-yl)-9H-purin-8-ylamino)benzonitrile]
< 100	CC(C)(C)Nc1ncc2nc(Nc3ccc(Cl)c(Cl)c3)n(C3CCNCC3)c2n1 [Cpd 6, N2-tert-butyl-N8-(3,4-dichlorophenyl)-9-(piperidin-4-yl)-9H-purine-2,8-diamine]
500 to 1200	CN(C)CCCn1c(Nc2cccc(C(F)(F)F)c2)nc2cnc(NC(C)(C)C)nc21 [Cpd 32, N2-tert-butyl-9-(3-(dimethylamino)propyl)-N8-(3-(trifluoromethyl)phenyl)-9H-purine-2,8-diamine]
200 to 500	FC(F)(F)c1cc(Nc2nc3cnc(NC4CC4)nc3n2C2CCNCC2)ccc1Cl [Cpd 80, N8-(4-chloro-3-(trifluoromethyl)phenyl)-N2-cyclopropyl-9-(piperidin-4-yl)-9H-purine-2,8-diamine]
